# Target: T1, human LPA1 (Homo sapiens, UniProt Q92633)
# T1 construct: expressed in transfected cells; host or cells: Chinese hamster ovary (CHO) cells
# Experiment: LPA1 functional antagonist assay (calcium flux)
# Type: cell-based
# Settings: CHO cells overexpressing human LPA1; inhibition of calcium flux induced by 10 nM LPA; read-out: hLPA1 IC50
# In short: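 IC50 values come from 4-parameter logistic fits and mark 50% block of the calcium flux evoked by 10 nM LPA. Human LPA1-overexpressing CHO cells were calcium-dye loaded at 37 °C, then given test compound (0.08 nM–5 μM, 0.5% DMSO, HEPES-buffered HBSS with 0.1% fatty-acid-free BSA) for 20 min at room temperature before agonist.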
# T1 sequence (Q92633 whole entry): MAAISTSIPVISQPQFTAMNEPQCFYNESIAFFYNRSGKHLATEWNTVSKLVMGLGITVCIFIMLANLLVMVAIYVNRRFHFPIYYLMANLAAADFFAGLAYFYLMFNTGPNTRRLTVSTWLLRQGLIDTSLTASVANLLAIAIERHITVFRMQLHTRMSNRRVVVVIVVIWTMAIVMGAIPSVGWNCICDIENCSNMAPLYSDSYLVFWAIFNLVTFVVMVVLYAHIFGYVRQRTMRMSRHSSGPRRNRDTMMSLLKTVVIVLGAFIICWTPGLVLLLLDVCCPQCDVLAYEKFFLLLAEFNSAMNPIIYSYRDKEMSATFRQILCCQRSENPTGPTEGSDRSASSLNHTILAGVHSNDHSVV
row,SMILES,IC50
1,"Cc1nc(-c2nnn(C)c2Nc2nccc(OCC3CC3)n2)ccc1O[C@H]1CCC[C@H](C(=O)O)C1 [Example 232, (1S,3S)-3-((6-(5-((4-(cyclopropyl-methoxy)pyrimidin-2-yl)amino)-1-methyl-1H-1,2,3-triazol-4-yl)-2-methylpyridin-3-yl)oxy)cyclohexane-1-carboxylic acid]",64 nM
2,"CCCc1ccnc(Nc2c(-c3ccc(O[C@H]4CCC[C@H](C(=O)O)C4)c(C)n3)nnn2C)n1 [Example 235, (1S,3S)-3-((2-methyl-6-(1-methyl-5-((4-propylpyrimidin-2-yl)amino)-1H-1,2,3-triazol-4-yl)pyridin-3-yl)oxy) cyclohexane-1-carboxylic acid]",23 nM
3,"CCCCc1cccc(Nc2c(-c3ccc(O[C@H]4CCC[C@H](C(=O)O)C4)c(C)n3)nnn2C)n1 [Example 236, (1S,3S)-3-((6-(5-((6-butylpyridin-2-yl)amino)-1-methyl-1H-1,2,3-triazol-4-yl)-2-methylpyridin-3-yl)oxy)cyclohexane-1-carboxylic acid]",10 nM
4,"CCCOc1nccc(Nc2c(-c3ccc(O[C@H]4CCC[C@H](C(=O)O)C4)c(C)n3)nnn2C)n1 [Example 238, (1S,3S)-3-((2-methyl-6-(1-methyl-5-((2-propoxypyrimidin-4-yl)amino)-1H-1,2,3-triazol-4-yl)pyridin-3-yl)oxy)cyclohexane-1-carboxylic acid]",53 nM
5,"CCOc1cccc(Nc2c(-c3ccc(O[C@H]4CCC[C@H](C(=O)O)C4)c(C)n3)nnn2C)n1 [Example 240, (1S,3S)-3-((6-(5-((6-ethoxypyridin-2-yl)amino)-1-methyl-1H-1,2,3-triazol-4-yl)-2-methylpyridin-3-yl)oxy) cyclohexane-1-carboxylic acid]",57 nM
6,"Cc1nc(-c2nnn(C)c2Nc2nccc(C(C)C)n2)ccc1O[C@H]1CCC[C@H](C(=O)O)C1 [Example 241, (1S,3S)-3-((6-(5-((4-isopropyl-pyrimidin-2-yl)amino)-1-methyl-1H-1,2,3-triazol-4-yl)-2-methylpyridin-3-yl)oxy)cyclohexane-1-carboxylic acid]",66 nM
7,"Cn1nnc(-c2ccc(O[C@H]3CCC[C@H](C(=O)O)C3)cn2)c1Nc1nccc(OCC2CC2)n1 [Example 243, (1S,3S)-3-((6-(5-((4-(cyclopropyl-methoxy)pyrimidin-2-yl)amino)-1-methyl-1H-1,2,3-triazol-4-yl)pyridin-3-yl)oxy)cyclohexane-1-carboxylic acid]",122 nM
8,"CCCCc1cccc(Nc2c(-c3ccc(O[C@H]4CCC[C@H](C(=O)O)C4)cn3)nnn2C)n1 [Example 245, (1S,3S)-3-((6-(5-((6-butylpyridin-2-yl)amino)-1-methyl-1H-1,2,3-triazol-4-yl)pyridin-3-yl)oxy)cyclohexane-1-carboxylic acid]",32 nM
9,"CCCOc1ccnc(Nc2c(-c3ccc(O[C@H]4CCC[C@H](C(=O)O)C4)cn3)nnn2C)n1 [Example 246, (1S,3S)-3-((6-(1-methyl-5-((4-propoxypyrimidin-2-yl)amino)-1H-1,2,3-triazol-4-yl)pyridin-3-yl)oxy) cyclohexane-1-carboxylic acid]",225 nM
10,"CCCc1ccnc(Nc2c(-c3ccc(O[C@H]4CCC[C@H](C(=O)O)C4)cn3)nnn2C)n1 [Example 247, (1S,3S)-3-((6-(1-methyl-5-((4-propylpyrimidin-2-yl)amino)-1H-1,2,3-triazol-4-yl)pyridin-3-yl)oxy) cyclohexane-1-carboxylic acid]",318 nM
11,"CCOc1cccc(Nc2c(-c3ccc(O[C@H]4CCC[C@H](C(=O)O)C4)cn3)nnn2C)n1 [Example 248, (1S,3S)-3-((6-(5-((6-ethoxypyridin-2-yl)amino)-1-methyl-1H-1,2,3-triazol-4-yl)pyridin-3-yl)oxy)cyclohexane-1-carboxylic acid]",111 nM
12,"Cc1nc(-c2nnn(C)c2COc2ncc(F)c(NC(C)C)n2)ccc1O[C@H]1CCC[C@H](C(=O)O)C1 [Example 252, (1S,3S)-3-((6-(5-(((5-fluoro-4-(isopropylamino)pyrimidin-2-yl)oxy)methyl)-1-methyl-1H-1,2,3-triazol-4-yl)-2-methylpyridin-3-yl)oxy)cyclohexane-1-carboxylic acid]",65 nM
13,"CCc1cc(OCc2c(-c3ccc(O[C@H]4CCC[C@H](C(=O)O)C4)c(C)n3)nnn2C)ncn1 [Example 256, (1S,3S)-3-((6-(5-(((6-ethylpyrimidin-4-yl)oxy)methyl)-1-methyl-1H-1,2,3-triazol-4-yl)-2-methylpyridin-3-yl)oxy)cyclohexane-1-carboxylic acid]",22 nM
14,[2H]C([2H])([2H])C([2H])([2H])Oc1nccc(NCc2c(-c3ccc(O[C@H]4CCC[C@H](C(=O)O)C4)c(C)n3)nnn2C)n1 [Example 258],1880 nM
15,CCOc1ccnc(NCc2c(-c3cnc(O[C@H]4CCC[C@H](C(=O)O)C4)c(C)n3)nnn2C)n1 [Example 259],131 nM
16,C=CCCc1ccnc(NCc2c(-c3ccc(O[C@H]4CCC[C@H](C(=O)O)C4)c(C)n3)nnn2C)n1 [Example 260],3.4 nM
17,Cc1nc(-c2nnn(C)c2CNc2ccnc(OC3CC(F)(F)C3)n2)ccc1O[C@H]1CCC[C@H](C(=O)O)C1 [Example 261],124 nM
18,CCCNc1nc(OCc2c(-c3ccc(O[C@H]4CCC[C@H](C(=O)O)C4)c(C)n3)nnn2C)ncc1F [Example 263],96 nM
19,CCNc1nc(OCc2c(-c3ccc(O[C@H]4CCC[C@H](C(=O)O)C4)c(C)n3)nnn2C)ncc1F [Example 264],76 nM
20,Cc1nc(-c2nnn(C)c2CNc2cccc(C(C)C)n2)ccc1O[C@H]1CCC[C@H](C(=O)O)C1 [Example 266],87 nM
21,Cc1nc(-c2nnn(C)c2CNc2ccnc(C(C)C)n2)ccc1O[C@H]1CCC[C@H](C(=O)O)C1 [Example 267],278 nM

# More lines, in order of falling IC50, values ahead:
row,IC50,SMILES
1,392 nM,"Cc1nc(-c2nnn(C)c2Nc2ccnc(OCC3CC3)n2)ccc1O[C@H]1CCC[C@H](C(=O)O)C1 [Example 233, (1S,3S)-3-((6-(5-((2-(cyclopropyl-methoxy)pyrimidin-4-yl)amino)-1-methyl-1H-1,2,3-triazol-4-yl)-2-methylpyridin-3-yl)oxy)cyclohexane-1-carboxylic acid]"
2,88 nM,"Cc1nc(-c2nnn(C)c2Nc2cc(C3CC3)ccn2)ccc1O[C@H]1CCC[C@H](C(=O)O)C1 [Example 234, (1S,3S)-3-((6-(5-((4-cyclopropyl-pyridin-2-yl)amino)-1-methyl-1H-1,2,3-triazol-4-yl)-2-methylpyridin-3-yl)oxy)cyclohexane-1-carboxylic acid]"
3,69 nM,"CCc1cc(OCc2c(-c3ccc(O[C@H]4CCC[C@H](c5nnn[nH]5)C4)c(C)n3)nnn2C)ncn1 [Example 257, 4-((4-(5-(((1S,3S)-3-(1H-tetrazol-5-yl)cyclohexyl)oxy)-6-methylpyridin-2-yl)-1-methyl-1H-1,2,3-triazol-5-yl)methoxy)-6-ethylpyrimidine]"
4,55 nM,"Cc1nc(-c2nnn(C)c2Nc2cccc(OCc3ccccc3)n2)ccc1O[C@H]1CCC[C@H](C(=O)O)C1 [Example 237, (1S,3S)-3-((6-(5-((6-(benzyloxy)pyridin-2-yl)amino)-1-methyl-1H-1,2,3-triazol-4-yl)-2-methylpyridin-3-yl)oxy)cyclohexane-1-carboxylic acid]"
5,51 nM,CCOc1cccc(OCc2c(-c3ccc(O[C@H]4CCC[C@H](C(=O)O)C4)c(C)n3)nnn2C)c1 [Example 268]
6,50 nM,"CCCOc1ccnc(Nc2c(-c3ccc(O[C@H]4CCC[C@H](C(=O)O)C4)c(C)n3)nnn2C)n1 [Example 239, (1S,3S)-3-((2-methyl-6-(1-methyl-5-((4-propoxypyrimidin-2-yl)amino)-1H-1,2,3-triazol-4-yl)pyridin-3-yl)oxy) cyclohexane-1-carboxylic acid]"
7,50 nM,Cc1nc(-c2nnn(C)c2CNc2nccc(OC3CC(F)(F)C3)n2)ccc1O[C@H]1CCC[C@H](C(=O)O)C1 [Example 262]
8,45 nM,Cc1nc(-c2nnn(C)c2CN(C)c2nccc(OCC(C)F)n2)ccc1O[C@H]1CCC[C@H](C(=O)O)C1 (some centres unmarked) [Example 269]
9,44 nM,Cc1nc(-c2nnn(C)c2CNc2ncc(F)c(NCCOc3ccc(F)cc3)n2)ccc1O[C@H]1CCC[C@H](C(=O)O)C1 [Example 265]
10,43 nM,"CCCc1cccc(Nc2c(-c3ccc(O[C@H]4CCC[C@H](C(=O)O)C4)cn3)nnn2C)n1 [Example 244, (1S,3S)-3-((6-(1-methyl-5-((6-propylpyridin-2-yl)amino)-1H-1,2,3-triazol-4-yl)pyridin-3-yl)oxy) cyclohexane-1-carboxylic acid]"
11,28 nM,"Cc1nc(-c2nnn(C)c2CN(C)c2nccc(OC3CC3)n2)ccc1O[C@H]1CCC[C@H](C(=O)O)C1 [Example 253, (1S,3S)-3-((6-(5-(((4-cyclopropoxypyrimidin-2-yl)(methyl)amino)methyl)-1-methyl-1H-1,2,3-triazol-4-yl)-2-methylpyridin-3-yl)oxy)cyclohexane-1-carboxylic acid]"
12,12.9 nM,"Cc1nc(-c2nnn(C)c2COc2cc(OC(F)F)ncn2)ccc1O[C@H]1CCC[C@H](C(=O)O)C1 [Example 255, (1S,3S)-3-((6-(5-(((6-(difluoromethoxy)pyrimidin-4-yl)oxy)methyl)-1-methyl-1H-1,2,3-triazol-4-yl)-2-methylpyridin-3-yl)oxy)cyclohexane-1-carboxylicacid]"
13,11 nM,"CCCOc1cccc(Nc2c(-c3ccc(O[C@H]4CCC[C@H](C(=O)O)C4)c(C)n3)nnn2C)n1 [Example 242, (1S,3S)-3-((2-methyl-6-(1-methyl-5-((6-propoxypyridin-2-yl)amino)-1H-1,2,3-triazol-4-yl)pyridin-3-yl)oxy) cyclohexane-1-carboxylic acid]"
14,5.9 nM,"Cc1nc(-c2nnn(C)c2COc2cccc(C(C)C)c2)ccc1O[C@H]1CCC[C@H](C(=O)O)C1 [Example 254, (1S,3S)-3-((6-(5-((3-isopropylphenoxy)methyl)-1-methyl-1H-1,2,3-triazol-4-yl)-2-methylpyridin-3-yl)oxy)cyclohexane-1-carboxylic acid]"

# Source: patent US11267800B2, “Cyclohexyl acid triazole azines as LPA antagonists” (BRISTOL-MYERS SQUIBB COMPANY, priority 2017, dated 2022)
